“Also recorded” adds a separate entry of the source.
How the values were obtained:
Jurkat = assay: Cellular effect in mammalian cells, Jurkat; type: cell-based; settings: Homo sapiens
HeLa = assay: Cellular effect in mammalian cells, HeLa; type: cell-based; settings: Homo sapiens
MCF-7 = assay: Cellular effect in mammalian cells, MCF-7; type: cell-based; settings: Homo sapiens, MCF7
H460 = assay: Cellular effect in mammalian cells, H460; type: cell-based; settings: Homo sapiens, NCI-H460
THP-1 = assay: Cellular effect in mammalian cells, THP-1; type: cell-based; settings: Homo sapiens
K562 = assay: Cellular effect in mammalian cells, K562; type: cell-based; settings: Homo sapiens
HCT116 = assay: Cellular effect in mammalian cells, HCT116; type: cell-based; settings: Homo sapiens, HCT-116
HepG2 = assay: Cellular effect in mammalian cells, HepG2; type: cell-based; settings: Homo sapiens
HT29 = assay: Cellular effect in mammalian cells, HT29; type: cell-based; settings: Homo sapiens, HT-29
MRC-5 = assay: Cellular effect in mammalian cells, MRC-5; type: cell-based; settings: Homo sapiens, MRC5
L02 = assay: Cellular effect in mammalian cells, L02; type: cell-based; settings: Homo sapiens
CDK2 = CDK2 (Homo sapiens, UniProt P24941); assay: Kinase assay CDK2; settings: read-out: Target biochemical activity IC50, CDK2
CDK7 = CDK7 (Homo sapiens, UniProt P50613); assay: Kinase assay CDK7; settings: read-out: Target biochemical activity IC50, CDK7
Aurora B = Aurora B (Homo sapiens, UniProt Q96GD4); assay: Kinase assay Aurora B; settings: read-out: Target biochemical activity IC50, Aurora B
SRC = SRC (Homo sapiens, UniProt P12931); assay: Kinase assay SRC; settings: read-out: Target biochemical activity IC50, SRC
TSSK1 = biological target: T1, TSSK1 (Homo sapiens, UniProt Q9BXA7); assay: Kinase assay TSSK1; settings: read-out: Target biochemical activity IC50, TSSK1
T1 sequence (Q9BXA7 1-367): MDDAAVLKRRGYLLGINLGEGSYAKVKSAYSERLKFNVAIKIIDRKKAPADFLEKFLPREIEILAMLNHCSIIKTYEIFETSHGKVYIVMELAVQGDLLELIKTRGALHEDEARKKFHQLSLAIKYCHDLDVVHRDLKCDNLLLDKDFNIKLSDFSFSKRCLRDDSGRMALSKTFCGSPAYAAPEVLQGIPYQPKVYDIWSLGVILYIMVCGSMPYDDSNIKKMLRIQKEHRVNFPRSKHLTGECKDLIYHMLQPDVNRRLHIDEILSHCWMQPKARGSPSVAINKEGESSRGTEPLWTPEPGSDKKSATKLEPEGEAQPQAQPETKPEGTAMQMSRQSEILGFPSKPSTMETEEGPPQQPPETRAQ

MCF-7 cells = assay: Cell apoptosis assay (TUNEL, PARP Western blot); type: cell-based; settings: 48 hours, TUNEL and PARP Western blot
Experimental: (§1) MCF-7 cells were treated with compound 18 (F200) and Roscovitine for 48 hours. Then the cells were analyzed by TUNEL assay and Western blot to detect apoptosis.
For TUNEL assay, cells were fixed and blocking in 6-well plate. DNA strand breaks were labeled by terminal deoxynucleotidyl transferase (TdT), which catalyzed polymerization of labeled nucleotides to free 3′-OH DNA ends in template-independent manner Fluorescein could be detected by anti-fluorescein antibody, conjugated with horse-radish-peroxidase (POD). After DAB reaction, stained cells were analyzed and counted under light microscope.
(§2) For Western blot, cells were harvested and lysed by lysis buffer. Western blot were performed with anti-PARP or anti-Pol[…] II antibody. During apoptosis, PARP is cleaved from a 113KD intact form into smaller 89KD and 24KD fragments.

[1] = test system: CDK9's activity on Pol II phosphorylation; assay: Western blot of Pol II phosphorylation; type: cell-based; settings: MCF-7 cells, 48 hours
Experimental: as §1, §2

[2] = Preliminary toxicology study in mice (acute toxicity); type: in vivo; settings: mouse, in vivo, po, p.o. (gavage), two weeks
Experimental: (§3) Preliminary toxicology study in mice: Mice were divided into four groups (n=10 in each), 500 mg/kg, 1,000 mg/kg or 2,000 mg/kg were administered respectively to three groups by gavage. Negative control is 0.5% CMC-Na. After two weeks, mice were sacrificed and tissue section of visceral organs were analyzed by Hematoxylin-Eosin staining

mice = assay: as above; type: in vivo; settings: p.o.
Experimental: as §3

[3] = PK profile: rat IV/PO study; type: in vivo; settings: oral administration
lung carcinoma (H460) = assay: Tumor growth inhibition, H460 xenograft; type: in vivo, SCID-bg mice; settings: 150 mg/kg, oral administration
Experimental: Animal: SCID-bg mice Tumor type: lung carcinoma (H460) Treatment: Single PO dose for 21 days (starting at day 7 following tumor inoculation) Endpoint: tumor volume and mean luciferase activity by Xenogen (Caliper) machine: SCID-bg mice were implanted with NCI-H460 cells at 5×10^6 cells/mouse on Day 0. Compound 18 treatment began on Day 7. […] In model group, the vehicle was used instead of compound 18. Tumor volume and mean luciferase activity by Xenogen technology were measured once per there days.

rabbit neutrophils = assay: Induction of neutrophil apoptosis (Annexin-V and PI staining); type: cell-based
Experimental: • 1. Acquire 5-10 ml blood from adult rabbit • 2. Isolate neutrophils using RED BLOOD CELL LYSING BUFFER (SIGMA Cat No. R7757) and rabbit isolation kit (TBDsciences, Cat No. LZS11133) • 3. Treat neutrophils with reference compounds or SG45 for 15 h • 4. Apoptosis assay (Annexin-V and PI staining)
Harvest neutrophils by centrifugation at 1,000 rpm, 4° C. for 7 min Remove culture medium after centrifugation. Wash the cell pellet with pre-cooled PBS 200 l once. The re-suspend the cells with pre-cooled PBS 100 l. Incubate the cells with 2 l dye PI (BD Biosciences. Cat. No. 556463) and 2 l anti-Annexin V-PE (BD Biosciences. Cat. No. 556421) at room temperature under the darkness for 30 minutes. Remove the antibodies by centrifugation at 1,000 rpm, 4° C. for 2 min Resuspend the cells in 200 l pre-cooled PBS Finally, load the cell suspension to the FACS machine to acquire the staining results: […]

SRC, sequence (P12931 whole entry, species assumed): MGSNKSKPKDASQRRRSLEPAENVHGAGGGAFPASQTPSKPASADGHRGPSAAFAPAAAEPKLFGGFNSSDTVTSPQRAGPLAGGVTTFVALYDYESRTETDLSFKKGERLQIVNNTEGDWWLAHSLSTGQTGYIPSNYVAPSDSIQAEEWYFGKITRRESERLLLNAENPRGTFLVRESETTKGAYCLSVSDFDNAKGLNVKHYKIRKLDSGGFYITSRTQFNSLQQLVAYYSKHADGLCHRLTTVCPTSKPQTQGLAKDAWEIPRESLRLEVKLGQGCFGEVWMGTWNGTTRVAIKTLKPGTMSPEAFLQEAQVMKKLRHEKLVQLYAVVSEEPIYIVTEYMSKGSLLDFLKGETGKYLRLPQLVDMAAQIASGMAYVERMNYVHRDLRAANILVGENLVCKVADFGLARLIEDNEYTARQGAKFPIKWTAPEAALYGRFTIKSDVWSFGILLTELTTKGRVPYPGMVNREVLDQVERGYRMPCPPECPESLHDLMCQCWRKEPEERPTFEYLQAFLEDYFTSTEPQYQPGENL
CDK7, sequence (P50613 whole entry, species assumed): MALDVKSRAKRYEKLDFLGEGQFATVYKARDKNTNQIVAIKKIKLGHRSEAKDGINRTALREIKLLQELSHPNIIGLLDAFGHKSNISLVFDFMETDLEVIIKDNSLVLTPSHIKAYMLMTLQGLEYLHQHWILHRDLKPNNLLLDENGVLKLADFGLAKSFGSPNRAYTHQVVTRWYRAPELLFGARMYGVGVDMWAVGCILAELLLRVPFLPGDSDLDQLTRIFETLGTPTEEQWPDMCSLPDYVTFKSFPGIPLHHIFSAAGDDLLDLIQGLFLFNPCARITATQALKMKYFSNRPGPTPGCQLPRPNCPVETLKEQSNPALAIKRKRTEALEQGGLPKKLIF
CDK7, sequence (P51946 whole entry partner, species assumed): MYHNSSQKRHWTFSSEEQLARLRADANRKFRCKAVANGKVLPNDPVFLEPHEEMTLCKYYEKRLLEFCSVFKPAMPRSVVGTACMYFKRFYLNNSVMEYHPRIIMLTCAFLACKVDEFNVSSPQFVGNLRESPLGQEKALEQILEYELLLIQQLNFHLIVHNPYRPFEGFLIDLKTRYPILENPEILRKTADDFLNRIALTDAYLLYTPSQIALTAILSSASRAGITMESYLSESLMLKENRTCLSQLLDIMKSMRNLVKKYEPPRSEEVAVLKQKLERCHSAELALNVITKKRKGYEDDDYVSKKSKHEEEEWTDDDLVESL
CDK7, sequence (P51948 whole entry partner, species assumed): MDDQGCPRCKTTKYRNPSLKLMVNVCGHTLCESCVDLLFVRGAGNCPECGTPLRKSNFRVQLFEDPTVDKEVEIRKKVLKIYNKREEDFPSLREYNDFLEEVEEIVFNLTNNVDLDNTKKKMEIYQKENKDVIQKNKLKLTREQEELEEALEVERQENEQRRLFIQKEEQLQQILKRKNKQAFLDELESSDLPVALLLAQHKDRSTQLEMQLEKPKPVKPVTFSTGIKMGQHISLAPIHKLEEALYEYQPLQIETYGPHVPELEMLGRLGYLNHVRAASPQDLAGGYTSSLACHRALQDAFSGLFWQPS
Aurora B, sequence (Q96GD4 whole entry): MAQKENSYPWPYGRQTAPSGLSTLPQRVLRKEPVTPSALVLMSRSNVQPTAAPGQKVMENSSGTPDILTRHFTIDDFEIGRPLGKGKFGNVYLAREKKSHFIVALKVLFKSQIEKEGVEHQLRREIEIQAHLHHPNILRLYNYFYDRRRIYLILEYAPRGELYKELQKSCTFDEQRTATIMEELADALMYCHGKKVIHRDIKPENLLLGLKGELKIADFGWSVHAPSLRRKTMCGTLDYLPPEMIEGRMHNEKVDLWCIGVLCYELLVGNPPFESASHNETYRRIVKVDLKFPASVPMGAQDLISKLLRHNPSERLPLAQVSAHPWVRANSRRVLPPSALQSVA

## CCCn1cc(-c2ccnc(Nc3cccc(S(N)(=O)=O)c3)n2)c2ccncc21 [SG51, 3-(4-(1-Propyl-1H-pyrrolo[2,3-c]pyridin-3-yl)pyrimidin-2-ylamino)benzenesulfonamide]
Jurkat
  IC50: 0.005 µM

## CCn1cc(-c2ccnc(Nc3ccc(O)cc3)n2)c2ccnc(Cl)c21 [SG49, 4-(4-(7-Chloro-1-ethyl-1H-pyrrolo[2,3-c]pyridin-3-yl)pyrimidin-2-ylamino)phenol]
HeLa
  IC50: 2.69 µM
MCF-7
  IC50: > 10 µM
H460
  IC50: 2.95 µM
Jurkat
  IC50: 0.61 µM
THP-1
  IC50: 3.68 µM
K562
  IC50: 3.52 µM
HCT116
  IC50: 4.28 µM
HepG2
  IC50: 5.55 µM
HT29
  IC50: 8.59 µM
MRC-5
  IC50: 5.82 µM
L02
  IC50: 7.34 µM

## CCn1cc(-c2ccnc(Nc3cccc(S(N)(=O)=O)c3)n2)c2ccnc(Cl)c21 [SG50, 3-(4-(7-Chloro-1-ethyl-1H-pyrrolo[2,3-c]pyridin-3-yl)pyrimidin-2-ylamino)benzenesulfonamide]
CDK2
  IC50: 0.004 µM
CDK7
  IC50: > 10 µM
Aurora B
  IC50: > 10 µM
SRC
  IC50: > 10 µM
TSSK1
  IC50: 0.52 µM
HeLa
  IC50: 0.23 µM
MCF-7
  IC50: 0.45 µM
Jurkat
  IC50: 0.4 µM
K562
  IC50: 0.61 µM
HCT116
  IC50: 0.28 µM
HT29
  IC50: 1.16 µM
MRC-5
  IC50: 3.36 µM

## CCn1cc(-c2ccnc(Nc3cccc(S(N)(=O)=O)c3)n2)c2cccnc21 [Compound 18, 3-(4-(1-Ethyl-1H-pyrrolo[2,3-b]pyridin-3-yl)pyrimidin-2-ylamino)benzenesulfonamide]
TSSK1
  IC50: > 10 µM
THP-1
  IC50: 5.3 µM
HT29
  IC50: 0.59 µM
L02
  IC50: 4.3 µM
MCF-7 cells
  Induction of cell apoptosis: induced apoptosis of cells; also recorded: induced cell apoptosis with dose-dependent manner
[1]
  Inhibition of CDK9's activity on Pol II phosphorylation: inhibited CDK9's activity on Pol II phosphorylation
[2]
  LD50 at 2 weeks: > 2000 mg/kg
  MTD at 2 weeks: > 500 mg/kg
mice
  Tolerability in animals: excellent tolerability in animals
[3]
  Oral availability (in words): good oral availability
Lung carcinoma (H460)
  Tumor growth inhibition (in words): able to inhibit tumor growth
Rabbit neutrophils; 15 h, FIG. 5
  Induction of neutrophil apoptosis compared with Roscovitine: stronger capability in inducing neutrophil apoptosis than Roscovitine
Rabbit neutrophils; increasing dose (0.5, 2, 10 μM), FIG. 4
  Apoptotic morphological changes of neutrophils: typical apoptotic morphological changes

## CCCn1cc(-c2ccnc(Nc3ccc(S(N)(=O)=O)cc3)n2)c2nc(Cl)cc(C)c21 [SG54, 4-(4-(5-Chloro-7-methyl-1-propyl-1H-pyrrolo[3,2-b]pyridin-3-yl)pyrimidin-2-ylamino)benzenesulfonamide]
L02
  IC50: 8.37 µM

## CCn1cc(-c2ccnc(Nc3cccc(O)c3)n2)c2ccnc(Cl)c21 [SG48, 3-(4-(7-Chloro-1-ethyl-1H-pyrrolo[2,3-c]pyridin-3-yl)pyrimidin-2-ylamino)phenol]
CDK2
  IC50: 0.004 µM
CDK7
  IC50: 3.28 µM
SRC
  IC50: > 10 µM
TSSK1
  IC50: 0.14 µM
HeLa
  IC50: 3.31 µM
MCF-7
  IC50: 9.4 µM
H460
  IC50: 4.66 µM
Jurkat
  IC50: 1.92 µM
THP-1
  IC50: > 10 µM
K562
  IC50: 4.75 µM
HCT116
  IC50: 4.67 µM
HepG2
  IC50: 6.1 µM
HT29
  IC50: 8.31 µM
MRC-5
  IC50: > 10 µM
L02
  IC50: 8.1 µM

## CCCn1cc(-c2ccnc(Nc3cccc(S(N)(=O)=O)c3)n2)c2nc(Cl)cc(C)c21 [SG53, 3-(4-(5-Chloro-7-methyl-1-propyl-1H-pyrrolo[3,2-b]pyridin-3-yl)pyrimidin-2-ylamino)benzenesulfonamide]
HCT116
  IC50: 3.56 µM
HT29
  IC50: 0.25 µM

## CCCn1cc(-c2ccnc(Nc3ccc(C)c(S(=O)(=O)N4CCOCC4)c3)n2)c2ccncc21 [SG52, N-(4-Methyl-3-(morpholinosulfonyl)phenyl)-4-(1-propyl-1H-pyrrolo[2,3-c]pyridin-3-yl)pyrimidin-2-amine]
L02
  IC50: 1.4 µM
